Measurements as given in US20260250318A1, “COMPOSITIONS AND METHODS FOR CROSSING THE BLOOD BRAIN BARRIER” (VOYAGER THERAPEUTICS, INC., priority 2022, published 2026).

Tested on: brains, heart, liver, muscle, and DRG of the NHPs
Experiment: Maturation of TTM-001 and TTM-002 capsids, NGS enrichment in NHP tissues
Assay type: in vivo
Excerpt: This Example describes maturation of the AAV9 capsid variants, TTM-001 (SEQ ID NO: 981 (amino acid) and 983 (DNA), comprising SEQ ID NO: 941 (encoded by SEQ ID NO: 942)) and TTM-002 (SEQ ID NO: 982 (amino acid) and 984 (DNA), comprising SEQ ID NO: […] (encoded by SEQ ID NO: 944)) in NHPs to further enhance their transduction and biodistribution in the central nervous system as well as other tissues, and evolve the AAV capsid variants to provide further cross-species compatibility. Two approaches were used to mature the TTM-001 and TTM-002 capsid sequences in order to randomize and mutate within and around the peptide insert comprised within loop IV of the capsid variant. […] In the first maturation approach, sets of three contiguous amino acids were randomized across the mutagenesis region in the TTM-001 and TTM-002 sequences, which spanned from position 450 to position 466, numbered according to SEQ ID NO: 981 and 982. In the second maturation approach, mutagenic primers were used to introduce point mutations at a low frequency, scattered across the mutagenesis region in the TTM-001 and TTM-002 sequences ranging from position 449 to position 466, numbered according to SEQ ID NO: 981 and 982. AAV capsid variants arising from each maturation approach for TTM-001 and TTM-002 were pooled together, for subsequent testing and characterization in NHPs.
The library of pooled matured AAV capsid variants generated using the first maturation approach and the second maturation approach for the TTM-001 and TTM-002 AAV capsid variants were injected into two NHPs. […] Following RNA recovery and RT-PCR amplification, a systematic NGS enrichment analysis was performed to calculate the fold enrichment ratio relative to an AAV9 control, and the peptides comprised within the variants were identified.
Following the RNA recovery and NGS analysis from the second maturation approach, approximately 680,000 capsid variants were identified. The 680,000 matured capsid variants were then filtered based on samples with a raw virus count greater than 10 and a coefficient of variance (CV) of less than 1, which was calculated for each peptide across the brain samples taken from the two NHPs. […] Using this filtering criteria, this led to approximately 64,000 matured capsid variants.

[1] = NHP DRG, NGS, relative to AAV9 control
[2] = NHP brain, NGS, relative to AAV9 control
[3] = NHP heart, NGS, relative to AAV9 control
[4] = NHP liver DNA, NGS, relative to AAV9 control
[5] = NHP liver RNA, NGS, TTM-001 and TTM-002 matured AAV capsid variants, relative to AAV9 control
[6] = NHP muscle, NGS, relative to AAV9 control

Row | Sequence | Fold Enrichment relative to AAV9, DRG (NHP) [1] [fold] | Fold Enrichment relative to AAV9, Brain (NHP) [2] [fold] | Fold Enrichment relative to AAV9, Heart (NHP) [3] [fold] | Fold Enrichment relative to AAV9, Liver DNA (NHP) [4] [fold] | Fold Enrichment relative to AAV9, Liver RNA (NHP) [5] [fold] | Fold Enrichment relative to AAV9, Muscle (NHP) [6] [fold] | Fold Enrichment relative to AAV9, DRG (NHP) (NGS fold-enrichment, DRG, NHP, relative to AAV9) [fold] | Fold Enrichment relative to AAV9, Brain (NHP) (NGS fold-enrichment, brain, NHP, relative to AAV9) [fold] | Fold Enrichment relative to AAV9, Heart (NHP) (NGS fold-enrichment, heart, NHP, relative to AAV9) [fold] | Fold Enrichment relative to AAV9, Liver DNA (NHP) (NGS fold-enrichment, liver DNA, NHP, relative to AAV9) [fold] | Fold Enrichment relative to AAV9, Liver RNA (NHP) (NGS fold-enrichment, liver RNA, NHP, relative to AAV9) [fold] | Fold Enrichment relative to AAV9, Muscle (NHP) (NGS fold-enrichment, muscle, NHP, relative to AAV9) [fold]
1 | KTINGSGSPHRWTQNQQT | 0.000 | 0.000 | 0.000 | 0.844 | 12.490 | 0.000 | – | – | – | – | – | –
2 | KTINGSGSPHSCHQNQQT | 0.000 | 0.000 | 0.000 | 8.562 | 56.242 | 0.000 | – | – | – | – | – | –
3 | KTINGSGSPHSCPQNQQT | 0.000 | 0.000 | 0.000 | 1.776 | 16.701 | 0.000 | – | – | – | – | – | –
4 | KTINGSGSPHSCQSNQQT | – | – | – | – | – | – | 0.000 | 0.000 | 0.000 | 1.468 | 10.631 | 0.000
5 | KTINGSGSPHSCSRNQQT | 0.000 | 0.000 | 0.000 | 4.293 | 40.372 | 0.000 | – | – | – | – | – | –
6 | KTINGSGSPHSFFGNQQT | 0.000 | 0.000 | 0.000 | 6.101 | 38.088 | 0.000 | – | – | – | – | – | –
7 | KTINGSGSPHSFPFNQQT | 0.000 | 0.000 | 0.000 | 4.693 | 38.584 | 0.000 | – | – | – | – | – | –
8 | KTINGSGSPHSFQINQQT | 0.000 | 0.308 | 1.568 | 0.269 | 17.418 | 0.000 | – | – | – | – | – | –
9 | KTINGSGSPHSFRPNQQT | 0.000 | 0.000 | 0.000 | 9.191 | 44.801 | 0.000 | – | – | – | – | – | –
10 | KTINGSGSPHSFRYNQQT | 0.000 | 0.000 | 0.000 | 4.148 | 21.097 | 0.000 | – | – | – | – | – | –
11 | KTINGSGSPHSFTCNQQT | 0.000 | 0.000 | 0.000 | 2.155 | 63.936 | 271.289 | – | – | – | – | – | –
12 | KTINGSGSPHSFTPNQQT | 0.000 | 0.000 | 0.000 | 1.036 | 24.227 | 0.000 | – | – | – | – | – | –
13 | KTINGSGSPHSFWSNQQT | 0.000 | 0.000 | 0.000 | 1.345 | 22.857 | 0.000 | – | – | – | – | – | –
14 | KTINGSGSPHSGACNQQT | 0.000 | 0.000 | 0.000 | 3.215 | 39.163 | 4733.916 | – | – | – | – | – | –
15 | KTINGSGSPHSGCQNQQT | 0.000 | 0.000 | 0.000 | 1.981 | 24.818 | 0.000 | – | – | – | – | – | –
16 | KTINGSGSPHSGKRNQQT | 0.000 | 0.000 | 0.000 | 5.396 | 35.120 | 0.000 | – | – | – | – | – | –
17 | KTINGSGSPHSKAARRQT | 0.000 | 0.000 | 0.000 | 6.633 | 19.998 | 0.000 | – | – | – | – | – | –
18 | KTINGSGSPHSKACISQT | 0.000 | 0.000 | 0.000 | 0.240 | 17.371 | 0.000 | – | – | – | – | – | –
19 | KTINGSGSPHSKACQFQT | 0.000 | 0.000 | 0.000 | 8.562 | 17.640 | 9.605 | – | – | – | – | – | –
20 | KTINGSGSPHSKACRLQT | 0.000 | 0.000 | 0.000 | 6.537 | 12.297 | 0.000 | – | – | – | – | – | –
21 | KTINGSGSPHSKACSRQT | 0.000 | 0.000 | 0.000 | 2.468 | 42.696 | 0.000 | – | – | – | – | – | –
22 | KTINGSGSPHSKAFSWQT | 0.000 | 0.000 | 0.000 | 1.805 | 51.304 | 0.000 | – | – | – | – | – | –
